Where two headings read alike, the source gives them in different places.
Tested on: murine spleen cells, Con A induced (T-cells)
Assay: Con A induced lymphocyte proliferation in mouse spleen cells in vitro
Assay type: cell-based, mouse (Balb/C)
Details: for activity at 0.01 µg/mL / activity at 0.1 µg/mL / activity at 1 µg/mL / activity at 2.5 µg/mL / activity at 5 µg/mL / activity at 25 µg/mL / activity at 50 µg/mL: Mus musculus
From the text: (1) Mitogen-(Lipopolysaccharide, LPS or Con A) induced lymphocyte proliferation using murine spleen cells (in vitro)
1. […] LPS is a mitogen which acts preferentially on B-cells. […] Con A is considered a T-cell mitogen.
1. Balb/C male mice, 7-8 weeks old, are used up to 20-24 weeks of age.
2. The animals are sacrificed by cervical dislocation and the animals' left sides swabbed with 70% ethanol. An incision is made between the lower ribs and pelvis, laterally from front to back, and the skin retracted. Aseptic technique is to be observed from this point on.
3. The spleen is gently removed with sterile forceps. […] When all spleens have been collected and cleaned they are placed in a second petri dish containing 3 ml cold RPMI.
4. Spleen cell suspensions are prepared by gentle mincing of the tissue with a sterile blade and filtering through #100 stainless steel mesh.
6. An aliquot of the above suspension is prepared for cell counting as follows: 0.1 ml of suspension is diluted to 1.0 ml with 3% acetic acid and let stand at room temperature for at least five minutes. The sample is then diluted 1:100 with "Isoton II" (Curtis-Matheson Co.) and counted in a coulter counter.
MURINE SPLENOCYTE STIMULATION WITH CONCANAVALIN A (CON A), LIPOPOLYSACCHARIDE (LPS), AND ALLOGENEIC SPLENOCYTES (LMC).
There is set forth below the standard procedure which should be modified according to the solubility and other properties of the particular compound tested.
Add ~10 ml RPMI to 1.79 g HEPES and vortex until completely dissolved. […] Allow to warm temperature before use.
5. Con A (Calbiochem)--100 mg/ml NaCl injection solution (McGaw), filter, aliquot in 1 ml, and store at -70° C.
8. Tritiated thymidine (^3 H-TdR, Schwartz-Mann, 6 Ci/mM). Remove a slightly larger volume of ^3 H-TdR than needed from vial with a 1 cc syringe and place volume in the cap of a small sterile plastic tube. […] Vortex thoroughly before adding to plates.
1. Animals are sacrificed by cervical dislocation killing one from each group and processing the cells individually before killing the next animal. Swab each animal with 70% ethanol before surgery. […] Use 8 vertical strokes (or enough to break up all tissue) with Teflon-tipped homogenizer. Filter each sample through a 100 mesh screen into a 50 ml tube. […] After all samples have been spun, vortex each briefly and let sit for 1 hour. Vortex each sample ~5 seconds, waiting ~10 seconds between each sample. Let sit 5 minutes, then pipet cell suspension into 5 ml (12×75 mm) tube being careful not to remove any sediment. Remove 50 ul cell suspension using micropipetter, carefully wipe pipet tip with kimwipe and pipet into 20 ml Isoton in Coulter counter vial, rinsing pipet several times in the Isoton. Add 6 drops of CyMet and swirl vial to mix. Use the following Coulter counter settings: Amplification-1, Threshold-10, and Aperture Current-1. Clean counter with Isoterge the morning of experiment and count background before standardizing with CH 0.60 Hematology Controls. After cell counts are obtained, dilute to 6×10^6 cells/ml with supplemented RPMI and aliquot into 3 tubes for the 3 assays.
1. Pipet 100 μl control media (supplemented RPMI) or appropriate dilution of mitogen (starting with lowest concentration) into microtiter plate using Titertek multi-channel pipetter. Place plates in 37° C. CO2 incubator with CO2 set at 0.5 after each plate has been pipetted. Pipet 100 μl responder cells into wells starting with most dilute mitogen concentration. Place plates in incubator as they are filled and after all plates are in incubator, let sit for 10-20 minutes. Wrap plates with plastic wrap, recover with top, replace in incubator, and reset CO2 to ~0.05. Save ~50 ml supplemented RPMI at 4° C. for thymidine dilution. After ~44 hours warm the RPMI to 37° C. in incubator. Dilute tritiated Thymidine 1:100 in warmed RPMI. Use Titertek to add 50 μl Thymidine to each well. Treat plates as above and incubate overnight (~18 hours).

## Oc1ncnc2c1nc1n2CCS1 [NPT 16416, 3-hydroxy-7,8-dihydrothiazolo-[3,2e]-purine]
T-cell, drug 10 ng/ml, Con A 1000 ng/ml, drug/control, read-out: Hi Mitogen D/C Con A
  activity at 0.01 µg/mL: 104%
T-cell, drug 100 ng/ml, Con A 1000 ng/ml, drug/control, read-out: Hi Mitogen D/C Con A
  activity at 0.1 µg/mL: 102%
T-cell, drug 1,000 ng/ml, Con A 1000 ng/ml, drug/control, read-out: Hi Mitogen D/C Con A
  activity at 1 µg/mL: 103%
T-cell, drug 2,500 ng/ml, Con A 1000 ng/ml, drug/control, read-out: Hi Mitogen D/C Con A
  activity at 2.5 µg/mL: 91%
T-cell, drug 5,000 ng/ml, Con A 1000 ng/ml, drug/control, read-out: Hi Mitogen D/C Con A
  activity at 5 µg/mL: 101%
T-cell, drug 25,000 ng/ml, Con A 1000 ng/ml, drug/control, read-out: Hi Mitogen D/C Con A
  activity at 25 µg/mL: 100%
T-cell, drug 50,000 ng/ml, Con A 1000 ng/ml, drug/control, read-out: Hi Mitogen D/C Con A
  activity at 50 µg/mL: 99%
read-out: Lo Mitogen D/C Con A
  activity at 0.01 µg/mL: 85%
Drug 100 ng/ml, Con A 375 ng/ml, drug/control, read-out: Lo Mitogen D/C Con A
  activity at 0.1 µg/mL: 105%
Drug 1,000 ng/ml, Con A 375 ng/ml, drug/control, read-out: Lo Mitogen D/C Con A
  activity at 1 µg/mL: 93%
Drug 1,000 ng/ml, Con A .375 μg/ml, read-out: Con A D/C (maximum values)
  activity at 1 µg/mL: 118%
Drug 2,500 ng/ml, Con A 375 ng/ml, drug/control, read-out: Lo Mitogen D/C Con A
  activity at 2.5 µg/mL: 98%
Drug 5,000 ng/ml, Con A 375 ng/ml, drug/control, read-out: Lo Mitogen D/C Con A
  activity at 5 µg/mL: 110%
Drug 25,000 ng/ml, Con A 375 ng/ml, drug/control, read-out: Lo Mitogen D/C Con A
  activity at 25 µg/mL: 113%
Drug 25,000 ng/ml, Con A .375 μg/ml, read-out: Con A D/C (maximum values)
  activity at 25 µg/mL: 118%
Drug 50,000 ng/ml, Con A 375 ng/ml, drug/control, read-out: Lo Mitogen D/C Con A
  activity at 50 µg/mL: 103%
Drug 10 ng/ml, Con A 375 ng/ml
  CPM Incorp. + Con A: 17.3 CPM × 10^3
Drug 10 ng/ml, Con A 1000 ng/ml
  CPM Incorp. + Con A: 61.8 CPM × 10^3
Drug 100 ng/ml, Con A 375 ng/ml
  CPM Incorp. + Con A: 20.6 CPM × 10^3
Drug 100 ng/ml, Con A 1000 ng/ml
  CPM Incorp. + Con A: 60.8 CPM × 10^3
Drug 1,000 ng/ml, Con A 375 ng/ml
  CPM Incorp. + Con A: 18.0 CPM × 10^3
Drug 1,000 ng/ml, Con A 1000 ng/ml
  CPM Incorp. + Con A: 60.8 CPM × 10^3
Drug 2,500 ng/ml, Con A 375 ng/ml
  CPM Incorp. + Con A: 19.1 CPM × 10^3
Drug 2,500 ng/ml, Con A 1000 ng/ml
  CPM Incorp. + Con A: 54.0 CPM × 10^3
Drug 5,000 ng/ml, Con A 375 ng/ml
  CPM Incorp. + Con A: 21.5 CPM × 10^3
Drug 5,000 ng/ml, Con A 1000 ng/ml
  CPM Incorp. + Con A: 59.7 CPM × 10^3
Drug 25,000 ng/ml, Con A 375 ng/ml
  CPM Incorp. + Con A: 22.1 CPM × 10^3
Drug 25,000 ng/ml, Con A 1000 ng/ml
  CPM Incorp. + Con A: 59.0 CPM × 10^3
Drug 50,000 ng/ml, Con A 375 ng/ml
  CPM Incorp. + Con A: 20.2 CPM × 10^3
Drug 50,000 ng/ml, Con A 1000 ng/ml
  CPM Incorp. + Con A: 58.6 CPM × 10^3
In vitro
  effect on Con A induced proliferation (T-cell response), in words: little or no effect

From patent US4510144A, “Methods of imparting immunomodulating activity with dihydrothiazolo purine derivatives” (Newport Pharmaceuticals International, priority 1982, dated 1985)
